For 16 molecules, IC50 results are on record in patent US9440969B2, “Compounds and methods for kinase modulation, and indications therefor” (PLEXXIKON INC., priority 2009, dated 2016).

One experiment deals with B-Raf (Homo sapiens, UniProt P15056). Kind of experiment: B-Raf kinase activity assay (AlphaScreen, biotin-MEK1 substrate). Conditions: 100 μM ATP, 100 nM biotin-MEK1, 45 minutes at room temperature; read-out: Biochemical activity (IC50 μM) B-Raf. As for the experimental part:
(§1) Assays for biochemical and cell based activity are known in the art, for example, as described in PCT publication WO 2007/002433, the disclosure of which is hereby incorporated by reference as it relates to such assays. For example, the biochemical activity IC50 values are determined with respect to inhibition of B-Raf kinase activity, c-Raf-1 kinase activity, or B-Raf V600E kinase activity, where inhibition of phosphorylation of a peptide substrate is measured as a function of compound concentration. Compounds to be tested are diluted in dimethyl sulfoxide to a concentration of 0.1 mM. These are serially diluted 15 μL into 30 μL of dimethyl sulfoxide seven times in 96 well plates for a total of 8 dilution points, and for each dilution point 1 μL is added to a well of an assay plate. Plates are prepared such that each well in a 384 well plate contains 1 μL of compound in 10 μL, volume with 0.1 ng Raf enzyme (i.e. any of B-Raf, c-Raf-1 or B-Raf V600E, Upstate Biotechnology or prepared by methods known to one of skill in the art), 50 mM HEPES, pH 7.0, 50 mM NaCl, 2 mM MgCl2, 1 mM MnCl2, 0.01% Tween-20, 1 mM DTT, and 100 nM biotin-MEK1 as substrate. The reaction is started with addition of 10 μL of 200 μM ATP (i.e. final 100 μM ATP). After incubation of the kinase reaction for 45 minutes at room temperature, 5 μL/well of Stop Solution is added (25 mM Hepes pH 7.5, 100 mM EDTA, 0.01% BSA with donor beads (Streptavidin coated beads, Perkin Elmer), acceptor beads (Protein A coated, Perkin Elmer), and anti phosphor MEK1/2 antibody (CellSignal), each at final concentration 10 μg/mL). The plates are incubated for 3 hours at room temperature and read on Envision reader (Perkin Elmer). Phosphorylation of Mek1 results in binding of the anti-phosphor-MEK1/2 antibody and association of the donor and acceptor beads such that signal correlates with kinase activity. The signal vs. compound concentration is used to determine the IC50.
In general terms: Bead proximity is the source of the signal in Alpha formats.

For a further experiment, the target named is B-Raf V600E (Homo sapiens, UniProt P15056, V600E). Put plainly: B-Raf V600E kinase activity assay (AlphaScreen, biotin-MEK1 substrate). Conditions: 100 μM ATP, 100 nM biotin-MEK1, 45 minutes at room temperature, read-out: Biochemical activity (IC50 μM) V600E. As for the experimental part:
as §1

The target in the next experiment is c-Raf-1 (Homo sapiens, UniProt P04049). Kind of experiment: c-Raf-1 kinase activity assay (AlphaScreen, biotin-MEK1 substrate). Conditions: 100 μM ATP, 100 nM biotin-MEK1, 45 minutes at room temperature; read-out: Biochemical activity (IC50 μM) c-Raf-1. As for the experimental part:
as §1

Chain of B-Raf V600E (P15056 whole entry V600E): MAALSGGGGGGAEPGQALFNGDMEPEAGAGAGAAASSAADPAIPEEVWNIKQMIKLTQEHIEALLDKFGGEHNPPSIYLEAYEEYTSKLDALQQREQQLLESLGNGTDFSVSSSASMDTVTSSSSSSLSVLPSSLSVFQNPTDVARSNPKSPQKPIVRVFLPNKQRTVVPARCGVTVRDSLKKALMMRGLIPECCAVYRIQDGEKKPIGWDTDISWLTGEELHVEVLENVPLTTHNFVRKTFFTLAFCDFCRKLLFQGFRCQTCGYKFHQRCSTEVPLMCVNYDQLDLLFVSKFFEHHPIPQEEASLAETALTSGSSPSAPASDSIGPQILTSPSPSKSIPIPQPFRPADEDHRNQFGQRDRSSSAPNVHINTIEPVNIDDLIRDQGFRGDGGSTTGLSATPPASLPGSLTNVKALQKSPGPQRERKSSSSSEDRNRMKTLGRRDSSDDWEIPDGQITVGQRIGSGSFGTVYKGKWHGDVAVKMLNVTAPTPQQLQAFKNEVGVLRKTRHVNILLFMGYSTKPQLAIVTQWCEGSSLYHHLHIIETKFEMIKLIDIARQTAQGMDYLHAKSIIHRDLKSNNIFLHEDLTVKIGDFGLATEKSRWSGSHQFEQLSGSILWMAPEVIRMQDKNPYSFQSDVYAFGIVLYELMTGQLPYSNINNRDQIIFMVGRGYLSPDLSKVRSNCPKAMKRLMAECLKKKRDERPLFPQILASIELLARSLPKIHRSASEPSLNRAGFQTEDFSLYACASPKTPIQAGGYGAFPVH
Chain of B-Raf (P15056 whole entry): as the sequence (P15056 whole entry V600E) above, with E600V counted along it
Chain of c-Raf-1 (P04049 whole entry Y340D/Y341D, form open): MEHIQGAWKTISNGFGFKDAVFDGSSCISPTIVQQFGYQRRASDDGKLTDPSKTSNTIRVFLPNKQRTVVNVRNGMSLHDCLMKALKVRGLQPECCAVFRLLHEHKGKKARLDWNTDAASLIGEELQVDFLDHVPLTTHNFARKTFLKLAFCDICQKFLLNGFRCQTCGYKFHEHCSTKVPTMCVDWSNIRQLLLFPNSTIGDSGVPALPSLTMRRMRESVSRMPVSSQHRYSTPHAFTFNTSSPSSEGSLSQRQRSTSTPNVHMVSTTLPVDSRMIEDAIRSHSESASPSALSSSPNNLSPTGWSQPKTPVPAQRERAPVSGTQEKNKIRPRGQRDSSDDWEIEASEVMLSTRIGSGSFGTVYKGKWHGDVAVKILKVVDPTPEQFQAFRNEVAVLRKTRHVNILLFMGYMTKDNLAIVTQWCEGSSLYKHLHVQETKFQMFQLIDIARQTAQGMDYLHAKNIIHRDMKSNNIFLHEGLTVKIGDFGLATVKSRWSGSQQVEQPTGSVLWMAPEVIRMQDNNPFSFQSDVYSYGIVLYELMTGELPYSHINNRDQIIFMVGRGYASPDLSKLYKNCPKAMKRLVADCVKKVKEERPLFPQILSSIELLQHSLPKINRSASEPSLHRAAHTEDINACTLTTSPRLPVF

Turning to `CCCS(=O)(=O)Nc1ccc(F)c(C(=O)c2c[nH]c3ncc(-c4cccc5nccn45)cc23)c1F` [P-0018, Propane-1-sulfonic acid [2,4-difluoro-3-(5-imidazo[1,2-a]pyridin-5-yl-1H-pyrrolo[2,3-b]pyridine-3-carbonyl)-phenyl]-amide], the IC50 at B-Raf, at B-Raf V600E and at c-Raf-1 was < 0.1 µM in each case.

For the molecule `CCCS(=O)(=O)Nc1ccc(F)c(C(=O)c2c[nH]c3ncc(-c4ccc5ncncc5c4)cc23)c1F` [P-0026, Propane-1-sulfonic acid [2,4-difluoro-3-(5-quinazolin-6-yl-1H-pyrrolo[2,3-b]pyridine-3-carbonyl)-phenyl]-amide], the IC50 on B-Raf, at B-Raf V600E and on c-Raf-1 was < 0.1 µM throughout.

As for `CCCS(=O)(=O)Nc1ccc(F)c(C(=O)c2c[nH]c3ncc(-c4c(C)nn(-c5nnn[nH]5)c4C)cc23)c1F` [P-1006, Propane-1-sulfonic acid (3-{5-[3,5-dimethyl-1-(1H-tetrazol-5-yl)-1H-pyrazol-4-yl]-1H-pyrrolo[2,3-b]pyridine-3-carbonyl}-2,4-difluoro-phenyl)-amide], the IC50 on B-Raf, on B-Raf V600E and on c-Raf-1 was < 0.1 µM throughout.

Consider `CCCS(=O)(=O)Nc1ccc(F)c(C(=O)c2c[nH]c3ncc(-c4c(C)nn(S(=O)(=O)c5cn(C)nc5C)c4C)cc23)c1F` [P-1007, Propane-1-sulfonic acid (3-{5-[1-(1,3-dimethyl-1H-pyrazole-4-sulfonyl)-3,5-dimethyl-1H-pyrazol-4-yl]-1H-pyrrolo[2,3-b]pyridine-3-carbonyl}-2,4-difluoro-phenyl)-amide], for which the IC50 at B-Raf, on B-Raf V600E and on c-Raf-1 was < 0.1 µM each time.

Turning to `Cn1cc(-c2cnc3[nH]cc(C(=O)c4c(F)ccc(NS(=O)(=O)c5cc(F)ccc5F)c4F)c3c2)cn1` [P-1009, N-{2,4-Difluoro-3-[5-(1-methyl-1H-pyrazol-4-yl)-1H-pyrrolo[2,3-b]pyridine-3-carbonyl]-phenyl}-2,5-difluoro-benzenesulfonamide], the IC50 at B-Raf, at B-Raf V600E and at c-Raf-1 was < 0.1 µM throughout.

Regarding `CCCS(=O)(=O)Nc1ccc(F)c(C(=O)c2c[nH]c3ncc(-c4cnc(-n5cccn5)s4)cc23)c1F` [P-1109, Propane-1-sulfonic acid {2,4-difluoro-3-[5-(2-pyrazol-1-yl-thiazol-5-yl)-1H-pyrrolo[2,3-b]pyridine-3-carbonyl]-phenyl}-amide], the 50% inhibitory concentration (IC50) on B-Raf, on B-Raf V600E and at c-Raf-1 was < 0.1 µM each time.

With `O=C(c1c(F)ccc(NS(=O)(=O)c2cc(F)ccc2F)c1F)c1c[nH]c2ncc(-c3cnco3)cc12` [P-1300, N-[2,4-Difluoro-3-(5-oxazol-5-yl-1H-pyrrolo[2,3-b]pyridine-3-carbonyl)-phenyl]-2,5-difluoro-benzenesulfonamide], the IC50 at B-Raf, on B-Raf V600E and at c-Raf-1 was < 0.1 µM throughout.

Take `O=C(c1c(F)ccc(NS(=O)(=O)c2cc(F)ccc2F)c1F)c1c[nH]c2ncc(-c3cccnc3)cc12` [P-1402, N-[2,4-Difluoro-3-(5-pyridin-3-yl-1H-pyrrolo[2,3-b]pyridine-3-carbonyl)-phenyl]-2,5-difluoro-benzenesulfonamide]: the IC50 at B-Raf, at B-Raf V600E and at c-Raf-1 was < 0.1 µM throughout.

Regarding `O=C(c1c(F)ccc(NS(=O)(=O)c2cc(F)ccc2F)c1F)c1c[nH]c2ncc(-c3ccncc3)cc12` [P-1403, N-[2,4-Difluoro-3-(5-pyridin-4-yl-1H-pyrrolo[2,3-b]pyridine-3-carbonyl)-phenyl]-2,5-difluoro-benzenesulfonamide], the IC50 at B-Raf, on B-Raf V600E and at c-Raf-1 was < 0.1 µM throughout.

As to `O=C(c1c(F)ccc(NS(=O)(=O)c2cc(F)ccc2F)c1F)c1c[nH]c2ncc(-c3ccncc3F)cc12` [P-1405, N-{2,4-Difluoro-3-[5-(3-fluoro-pyridin-4-yl)-1H-pyrrolo[2,3-b]pyridine-3-carbonyl]-phenyl}-2,5-difluoro-benzenesulfonamide], the IC50 on B-Raf, on B-Raf V600E and on c-Raf-1 was < 0.1 µM in each case.

`CS(=O)(=O)c1cncc(-c2cnc3[nH]cc(C(=O)c4c(F)ccc(NS(=O)(=O)c5cc(F)ccc5F)c4F)c3c2)c1` [P-1407, N-{2,4-Difluoro-3-[5-(5-methanesulfonyl-pyridin-3-yl)-1H-pyrrolo[2,3-b]pyridine-3-carbonyl]-phenyl}-2,5-difluoro-benzenesulfonamide]: the IC50 on B-Raf, on B-Raf V600E and at c-Raf-1 was < 0.1 µM in each case.

Consider `O=C(c1c(F)ccc(NS(=O)(=O)c2cc(F)ccc2F)c1F)c1c[nH]c2ncc(-c3cncnc3)cc12` [P-1500, N-[2,4-Difluoro-3-(5-pyrimidin-5-yl-1H-pyrrolo[2,3-b]pyridine-3-carbonyl)-phenyl]-2,5-difluoro-benzenesulfonamide], for which the IC50 at B-Raf, on B-Raf V600E and on c-Raf-1 was < 0.1 µM each time.

As to `CNS(=O)(=O)c1ccc(-c2cnc3[nH]cc(C(=O)c4c(F)ccc(NS(=O)(=O)c5cc(F)ccc5F)c4F)c3c2)cc1` [P-1706, N-{2,4-Difluoro-3-[5-(4-methylsulfamoyl-phenyl)-1H-pyrrolo[2,3-b]pyridine-3-carbonyl]-phenyl}-2,5-difluoro-benzenesulfonamide], the IC50 at B-Raf, on B-Raf V600E and at c-Raf-1 was < 0.1 µM in each case.

In the case of `NS(=O)(=O)c1ccc(-c2cnc3[nH]cc(C(=O)c4c(F)ccc(NS(=O)(=O)c5cc(F)ccc5F)c4F)c3c2)cc1` [P-1707, N-{2,4-Difluoro-3-[5-(4-sulfamoyl-phenyl)-1H-pyrrolo[2,3-b]pyridine-3-carbonyl]-phenyl}-2,5-difluoro-benzenesulfonamide], the IC50 at B-Raf, on B-Raf V600E and at c-Raf-1 was < 0.1 µM in each case.

Take `CCCS(=O)(=O)Nc1ccc(F)c(C(=O)c2c[nH]c3ncc(NC(=O)c4cccnc4)cc23)c1F` [P-1800, N-{3-[2,6-Difluoro-3-(propane-1-sulfonylamino)-benzoyl]-1H-pyrrolo[2,3-b]pyridin-5-yl}-nicotinamide]: the results for the IC50 at B-Raf, on B-Raf V600E and on c-Raf-1 were < 1 µM, < 0.1 µM and < 0.1 µM, respectively.

`CCCS(=O)(=O)Nc1ccc(F)c(C(=O)c2c[nH]c3ncc(NC(=O)C4C=C(C)ON4)cc23)c1F` (stereo not drawn) [P-1802, 5-Methyl-2,3-dihydro-isoxazole-3-carboxylic acid {3-[2,6-difluoro-3-(propane-1-sulfonylamino)-benzoyl]-1H-pyrrolo[2,3-b]pyridin-5-yl}-amide]: the IC50 is < 1 µM on B-Raf, < 0.1 µM on B-Raf V600E and ~0.1 µM on c-Raf-1.

One may read the IC50 as the concentration needed to halve the response being measured.
